Where a SMILES comes first, the peptide text is derived from it. [ ]: non-standard residue; d: D form.
Assays:
[1] = biological target: Kappa-type opioid receptor (Rattus norvegicus) (UniProt P34975); experiment: Antagonist activity at rat kappa opioid receptor expressed in CHO cell membranes assessed as inhibition of Dyn A-(1-13)NH2-induced [35S]GTPgammaS binding by schild analysis; assay type: functional
[2] = biological target: Delta-type opioid receptor (Rattus norvegicus, UniProt P33533); experiment: Displacement of [3H]DPDPE from rat delta opioid receptor expressed in CHO cells after 90 mins by scintillation counting analysis; assay type: cell-based
Sequence of Delta-type opioid receptor (P33533 whole entry): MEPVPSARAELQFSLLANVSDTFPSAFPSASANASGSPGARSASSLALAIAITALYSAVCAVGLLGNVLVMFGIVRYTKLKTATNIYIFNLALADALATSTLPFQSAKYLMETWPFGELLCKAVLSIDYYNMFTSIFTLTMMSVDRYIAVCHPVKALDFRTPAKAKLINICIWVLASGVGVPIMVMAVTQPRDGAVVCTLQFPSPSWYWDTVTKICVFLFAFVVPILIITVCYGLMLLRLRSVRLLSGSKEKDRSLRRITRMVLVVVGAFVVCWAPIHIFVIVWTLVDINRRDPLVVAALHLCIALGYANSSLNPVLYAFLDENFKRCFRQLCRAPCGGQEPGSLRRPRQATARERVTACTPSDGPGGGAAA

[3] = biological target: Kappa-type opioid receptor (Rattus norvegicus) (UniProt P34975); experiment: Antagonist activity at rat kappa opioid receptor expressed in CHO cell membranes assessed as inhibition of Dyn A-(1-13)NH2-induced [35S]GTPgammaS binding at 10 uM relative to control; assay type: functional

Sequence of Kappa-type opioid receptor (Rattus norvegicus) (P34975 whole entry): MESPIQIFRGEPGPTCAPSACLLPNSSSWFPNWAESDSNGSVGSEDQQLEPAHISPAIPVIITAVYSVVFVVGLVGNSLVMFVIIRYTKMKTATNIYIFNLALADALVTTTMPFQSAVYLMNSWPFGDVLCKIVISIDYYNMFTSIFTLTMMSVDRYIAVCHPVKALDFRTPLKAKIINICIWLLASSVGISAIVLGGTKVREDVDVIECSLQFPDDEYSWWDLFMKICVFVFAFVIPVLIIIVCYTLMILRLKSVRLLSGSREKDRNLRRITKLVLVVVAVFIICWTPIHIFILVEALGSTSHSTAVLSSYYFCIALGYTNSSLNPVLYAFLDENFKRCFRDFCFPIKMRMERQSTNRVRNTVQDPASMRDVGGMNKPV

`CC(=O)N[C@@H](Cc1ccccc1)C(=O)N[C@@H](Cc1ccccc1)C(=O)N[C@@H](Cc1ccccc1)C(=O)N[C@@H](CCCN=C(N)N)C(=O)N[C@@H](CC(C)C)C(=O)N[C@@H](CCCN=C(N)N)C(=O)N[C@@H](CCCN=C(N)N)C(=O)N[C@@H](C)C(=O)N[C@@H](CCCN=C(N)N)C(=O)N1CCC[C@H]1C(=O)N[C@@H](CCCCN)C(N)=O` (Ac-FFFRLRRARPK-NH2) gave a Kb [1] of 17 nM.

With `CC(=O)N[C@@H](Cc1ccccc1)C(=O)N[C@@H](Cc1ccccc1)C(=O)N[C@@H](Cc1ccccc1)C(=O)N[C@@H](CCCNC(=N)N)C(=O)N[C@@H](CC(C)C)C(=O)N[C@@H](CCCNC(=N)N)C(=O)N[C@@H](CCCNC(=N)N)C(=O)N[C@H](C)C(=O)N[C@@H](CCCNC(=N)N)C(=O)N1CCC[C@H]1C(=O)N[C@@H](CCCCN)C(N)=O` (Ac-FFFRLRR[dA]RPK-NH2) the Ki [2] was over 5000 nM.

In the case of `CC[C@H](C)[C@H](NC(=O)[C@H](CCCNC(=N)N)NC(=O)[C@@H]1C/C=C/COc2ccc(cc2)C[C@H](NC(=O)[C@H](Cc2ccccc2)NC(=O)[C@H](Cc2ccccc2)NC(C)=O)C(=O)N[C@@H](CCCNC(=N)N)C(=O)N1)C(=O)N[C@@H](CCCNC(=N)N)C(=O)N1CCC[C@H]1C(=O)N[C@@H](CCCCN)C(N)=O`, the inhibition [3] is reported as 3.3%.
